From patent publication US8735129B2, “Ginsenoside glycosidase derived from the genus Terrabacter, and use thereof” (Korea Research Institute of Bioscience and Biotechnology, priority 2009, dated 2014)
Values joined by “and” are separate entries in the source; they are usually repeats but may differ in a detail not shown here. Equal values may be shown once. Read-outs that look alike come from different tables or passages of the source.

What was measured:
Format in all cases: biochemical, Terrabacter ginsenosidimutans Gsoil 3082
[1] = system: purified recombinant BGL-GYP17; test: Effects of metal ions and chemical agents on ginsenoside glycosidase activity (pNPGlc substrate)
recombinant Bgl-gyp17 [2] = test: Enzymatic hydrolysis of PPD-type ginsenosides (TLC, HPLC, NMR); conditions: 0.2 U enzyme, 50 mM sodium phosphate pH 7.0, 37° C., hydrolysis of glucoses at C-3
Procedure: In order to analyze the specificity and selectivity of the recombinant enzyme for the hydrolysis of glucose at the C-3 and C-20 positions of PPD-type ginsenoside, ginsenoside Rb1, Rb2, Rc, Rd, and Rg3 were used as substrates. Each reaction mixture containing 0.2 U enzyme, 50 mM sodium phosphate buffer 0.1% (w/v) (pH 7.0), and the substrate was incubated at 37° C. Each sample was withdrawn at regular intervals, and an equal volume of water-saturated butanol was added to stop the reaction. The n-butanol fraction was evaporated to dryness, and any residual material was dissolved in CH3OH and then examined by TLC HPLC or NMR analysis.

recombinant Bgl-gyp17 [3] = test: as above; conditions: Rb1 substrate, enzyme 1 mg/ml
Bgl-gyp17 = test: Substrate preference with chromogenic oNP and pNP glycosides; conditions: 2.0 mM substrate; for Relative activity (%): 50 mM sodium phosphate pH 7.0, 37° C., activity on ONPGlu = 100%
Procedure: 1 activity unit was defined as the release of o-nitrophenol or p-nitrophenol per minute. For analysis of substrate preference, 2.0 mM chromogenic oNP and pNP (p-nitrophenyl) were used as the substrates, and incubated at 37° C. for 5 minutes. The analyzed substrates (Sigma) were pNP-β-D-glucopyranoside, pNP-β-D-galactopyranoside, pNP-β-D-fucopyranoside, pNP-β-D-glucosaminide, pNP-β-L-arabinopyranoside, pNP-β-D-mannopyronoside, pNP-β-D-xylopyranoside, pNP-α-D-glucopyranoside, pNP-α-L-arabinopyranoside, pNP-α-L-arabinopyranoside, pNP-α-D-rhamnopyranoside, pNP-α-D-mannopyranoside, pNP-α-D-xylopyranoside, o-nitrophenol[oNP]-β-D-glucopyranoside, oNP-β-D-galactopyranoside, oNP-β-D-fucopyranoside, and oNP-β-D-galactopyranoside.
In order to examine the substrate specificity of Bgl-gyp17, it was incubated in 50 mM sodium phosphate buffer containing 2.0 mM βα and β-type p-NP (p-nitrophenyl) and oNP (O-nitrophenyl)-glycosidase at pH 7.0 and 37° C. […] The Km and Vmax for the hydrolysis of pNPGlc by ginsenoside glycosidase were determined using 0-2 mM substrate and the enzyme kinetics program reported by Cleland. The values measured by the program were 4.24 mM and 0.10 mmol*min^−1*mg of protein^−1 for pNpGlc.

[4] = 1 mM metal ion or reagent, 30 min at room temperature, pNPGlc substrate, 100% = 44.3 U/mg
[5] = 10 mM metal ion or reagent, 30 min at room temperature, pNPGlc substrate, 100% = 44.3 U/mg

Question: What does the source list for `OCCS` [Beta-Mercaptoethanol]?
Answer: Relative activity (%) [1, 4]: 98.4 ± 4.89%; Relative activity (%) [1, 5]: 102.5 ± 4.57%

Question: For `CC(C)=CCC[C@](C)(O[C@@H]1O[C@H](CO[C@@H]2O[C@@H](CO)[C@H](O)[C@H]2O)[C@@H](O)[C@H](O)[C@H]1O)[C@H]1CC[C@]2(C)[C@@H]1[C@H](O)C[C@@H]1[C@@]3(C)CC[C@H](O[C@@H]4O[C@H](CO)[C@@H](O)[C@H](O)[C@H]4O)C(C)(C)[C@@H]3CC[C@]12C` [C-Mc1, compound Mc1], which “conversion of the ginsenoside by the enzyme (product)” value (“conversion of the ginsenoside” below) (recombinant Bgl-gyp17 [2]) is on record?
Answer: Its value is “C-Mc”.

Question: `[Ca+2].[Cl-].[Cl-]` [CaCl2] was tested. Which “Relative activity (%)” value [1, 4] did it give?
Answer: The value was 91.8 ± 4.59%.

Question: And the “Relative activity (%)” value [1, 5]?
Answer: Its value is 101.5 ± 5.23%.

Question: For `[Cl-].[Cl-].[Co+2]` [CoCl2], which “Relative activity (%)” value [1] is on record?
Answer: Its value is 100.9 ± 8.43% and 97.0 ± 5.04%.

Question: With `[Cl][Cu][Cl]` [CuCl2] as the compound, how does the “Relative activity (%)” value [1, 4] read?
Answer: Its value is 84.7 ± 4.48%.

Question: What about the “Relative activity (%)” value [1, 5] of the same compound?
Answer: Its value is 71.7 ± 5.07%.

Question: For `CC(C)=CCCC(C)(OC1OC(COC2OCC(O)C(O)C2O)C(O)C(O)C1O)C1CCC2(C)C1C(O)CC1C3(C)CCC(OC4OC(CO)C(O)C(O)C4O)C(C)(C)C3CCC12C` (stereo not shown) [C—O, compound O], which “conversion of the ginsenoside” value (recombinant Bgl-gyp17 [2]) is on record?
Answer: The value was “C—Y”.

Question: What does the source list for `O[C@@H](CS)[C@@H](O)CS` [DTT]?
Answer: Relative activity (%) [1, 4]: 96.7 ± 5.59%; Relative activity (%) [1, 5]: 96.6 ± 5.14%

Question: With `O=C(O)CN(CCN(CC(=O)O)CC(=O)O)CC(=O)O` [EDTA] as the compound, how does the “Relative activity (%)” value [1, 4] read?
Answer: The value was 98.6 ± 6.49%.

Question: And the “Relative activity (%)” value [1, 5]?
Answer: The value was 96.6 ± 4.52%.

Question: With `CC(C)=CCC[C@](C)(O[C@@H]1O[C@H](CO)[C@@H](O)[C@H](O)[C@H]1O)[C@H]1CC[C@]2(C)[C@@H]1[C@H](O)C[C@@H]1[C@@]3(C)CC[C@H](O[C@@H]4O[C@H](CO)[C@@H](O)[C@H](O)[C@H]4O[C@@H]4O[C@H](CO)[C@@H](O)[C@H](O)[C@H]4O)C(C)(C)[C@@H]3CC[C@]12C` [Ginsenoside Rd] as the compound, how does the “conversion of the ginsenoside” value (recombinant Bgl-gyp17 [2]) read?
Answer: Its value is “converted into F2”.

Question: And the “conversion of the ginsenoside” value (recombinant Bgl-gyp17 [2]; listed as Rd)?
Answer: Its value is “C—K”.

Question: With `[Cl][Hg][Cl]` [Hg^2+, HgCl2] as the compound, how does the “effect on Bgl-gyp17 activity” value [1] read?
Answer: Its value is “strongly inhibited the activity”.

Question: Which “Relative activity (%)” value [1, 4] does the source give for `[Cl-].[K+]` [KCl] here?
Answer: The value was 102.7 ± 4.65%.

Question: What about the “Relative activity (%)” value [1, 5] of the same compound?
Answer: The value was 96.2 ± 4.64%.

Question: Which results are given for `[Cl-].[Cl-].[Mg+2]` [MgCl2]?
Answer: Relative activity (%) [1, 4]: 94.8 ± 5.10%; Relative activity (%) [1, 5]: 95.2 ± 5.14%

Question: How did the “Relative activity (%)” value [1, 4] turn out when `[Cl][Mn][Cl]` [MnCl2] was run?
Answer: Its value is 101.1 ± 5.45%.

Question: What about the “Relative activity (%)” value [1, 5] of the same compound?
Answer: The value was 96.9 ± 4.79%.

Question: Which “Relative activity (%)” value [1] does the source give for `[Cl-].[Na+]` [Nacl, NaCl] here?
Answer: The value was 102.3 ± 5.15% and 97.7 ± 4.51%.

Question: Which results are given for `CCCCCCCCCCCCOS(=O)(=O)[O-].[Na+]` [SDS]?
Answer: concentration showing an inhibitory effect [1]: ≥ 10 mM; Relative activity (%) [1, 4]: 94.8 ± 6.98%; Relative activity (%) [1, 5]: 2.7 ± 3.22%

Question: Which “Relative activity (%)” value [1, 4] does the source give for `[Cl-].[Cl-].[Zn+2]` [ZnCl2] here?
Answer: Its value is 92.8 ± 4.72%.

Question: What about the “Relative activity (%)” value [1, 5] of the same compound?
Answer: The value was 72.8 ± 4.27%.

Question: Which “time at which the final product was produced” value (recombinant Bgl-gyp17 [3]) does the source give for `CC(C)=CCC[C@](C)(O[C@@H]1O[C@H](CO)[C@@H](O)[C@H](O)[C@H]1O)[C@H]1CC[C@]2(C)[C@@H]1[C@H](O)C[C@@H]1[C@@]3(C)CC[C@H](O)C(C)(C)[C@@H]3CC[C@]12C` [compound K] here?
Answer: The value was 24 h.

Question: Which “conversion of the ginsenoside” value (recombinant Bgl-gyp17 [2]) does the source give for `CC(C)=CCC[C@](C)(O)[C@H]1CC[C@]2(C)[C@@H]1[C@H](O)C[C@@H]1[C@@]3(C)CC[C@H](O[C@@H]4O[C@H](CO)[C@@H](O)[C@H](O)[C@H]4O[C@@H]4O[C@H](CO)[C@@H](O)[C@H](O)[C@H]4O)C(C)(C)[C@@H]3CC[C@]12C` [ginsenoside Rg3] here?
Answer: The value was “produced ginsenoside Rh2”.

Question: What about the “conversion of the ginsenoside” value (recombinant Bgl-gyp17 [2]; listed as Rg3) of the same compound?
Answer: The value was “PPD”.

Question: What does the source list for `CC(C)=CCC[C@](C)(O[C@@H]1O[C@H](CO[C@@H]2O[C@H](CO)[C@@H](O)[C@H](O)[C@H]2O)[C@@H](O)[C@H](O)[C@H]1O)[C@H]1CC[C@]2(C)[C@@H]1[C@H](O)C[C@@H]1[C@@]3(C)CC[C@H](O)C(C)(C)[C@@H]3CC[C@]12C` [gyp LXXV, gypenoside LXXV]?
Answer: conversion of the ginsenoside by the enzyme (product) (recombinant Bgl-gyp17 [2]): C—K; time at which it started to appear (recombinant Bgl-gyp17 [3]): 10 min; time of decrease to almost undetectable level (recombinant Bgl-gyp17 [3]): 24 h; time of maximum level (recombinant Bgl-gyp17 [3]): 2 h

Question: With `O=[N+]([O-])c1ccccc1O[C@H]1O[C@H](CO)[C@H](O)[C@H](O)[C@H]1O` [oNP-α-D-galactopyranoside] as the compound, how does the “Relative activity (%)” value (Bgl-gyp17) read?
Answer: The value was 0%.

Question: `C[C@H]1O[C@@H](Oc2ccccc2[N+](=O)[O-])[C@H](O)[C@@H](O)[C@H]1O` [oNP-β-D-fucopyranoside] was tested. Which “Relative activity (%)” value (Bgl-gyp17) did it give?
Answer: The value was 15.88 ± 0.544%.

Question: How did the “Relative activity (%)” value (Bgl-gyp17) turn out when `O=[N+]([O-])c1ccccc1O[C@@H]1O[C@H](CO)[C@H](O)[C@H](O)[C@H]1O` [oNP-β-D-galatopyranoside] was run?
Answer: The value was 2.33 ± 0.081%.

Question: With `O=[N+]([O-])c1ccccc1O[C@@H]1O[C@H](CO)[C@@H](O)[C@H](O)[C@H]1O` [oNP-β-D-glucopyranoside] as the compound, how does the “Relative activity (%)” value (Bgl-gyp17) read?
Answer: The value was 100.00 ± 3.542%.

Question: What about the “activity toward substrate” value (Bgl-gyp17; pH 7.0, 37° C.) of the same compound?
Answer: The value was “highest activity”.

Question: `O=[N+]([O-])c1ccc(O[C@H]2O[C@H](CO)[C@@H](O)[C@H](O)[C@H]2O)cc1` [pNP-α-D-glucopyranoside] was tested. Which “Relative activity (%)” value (Bgl-gyp17) did it give?
Answer: The value was 1.12 ± 0.214%.

Question: For `O=[N+]([O-])c1ccc(O[C@H]2O[C@H](CO)[C@@H](O)[C@H](O)[C@@H]2O)cc1` [pNP-α-D-mannopyranoside], which “Relative activity (%)” value (Bgl-gyp17) is on record?
Answer: The value was 0%.

Question: How did the “Relative activity (%)” value (Bgl-gyp17) turn out when `O=[N+]([O-])c1ccc(O[C@@H]2O[C@@H](CO)[C@H](O)[C@H]2O)cc1` [pNP-α-L-arabinofuranoside] was run?
Answer: The value was 0%.

Question: How did the “Relative activity (%)” value (Bgl-gyp17) turn out when `O=[N+]([O-])c1ccc(O[C@@H]2OC[C@H](O)[C@H](O)[C@H]2O)cc1` [pNP-α-L-arabinopyranoside] was run?
Answer: Its value is 0%.

Question: For `C[C@@H]1O[C@@H](Oc2ccc([N+](=O)[O-])cc2)[C@H](O)[C@H](O)[C@H]1O` [pNP-α-L-rhamnopyranoside], which “Relative activity (%)” value (Bgl-gyp17) is on record?
Answer: Its value is 0%.

Question: For `C[C@H]1O[C@@H](Oc2ccc([N+](=O)[O-])cc2)[C@H](O)[C@@H](O)[C@H]1O` [pNP-β-D-fucopyranoside], which “Relative activity (%)” value (Bgl-gyp17) is on record?
Answer: Its value is 6.98 ± 0.063%.

Question: How did the “Relative activity (%)” value (Bgl-gyp17) turn out when `O=[N+]([O-])c1ccc(O[C@@H]2O[C@H](CO)[C@H](O)[C@H](O)[C@H]2O)cc1` [pNP-β-D-glactopyranoside] was run?
Answer: The value was 0%.

Question: How did the “Relative activity (%)” value (Bgl-gyp17) turn out when `O=[N+]([O-])c1ccc(O[C@@H]2O[C@H](CO)[C@@H](O)[C@H](O)[C@H]2O)cc1` [pNP-β-D-glucopyranoside, p-nitrophenyl-β-D-glucopyranoside] was run?
Answer: Its value is 89.52 ± 4.430%.

Question: How did the “Relative activity (%)” value (Bgl-gyp17) turn out when `N[C@H]1[C@H](Oc2ccc([N+](=O)[O-])cc2)O[C@H](CO)[C@@H](O)[C@@H]1O` [pNP-β-D-glucosaminide] was run?
Answer: Its value is 0%.

Question: Which “Relative activity (%)” value (Bgl-gyp17) does the source give for `O=[N+]([O-])c1ccc(O[C@@H]2O[C@H](CO)[C@@H](O)[C@H](O)[C@@H]2O)cc1` [pNP-β-D-mannopyranoside] here?
Answer: Its value is 0%.

Question: With `O=[N+]([O-])c1ccc(O[C@@H]2OC[C@@H](O)[C@H](O)[C@H]2O)cc1` [pNP-β-D-xylopyranoside] as the compound, how does the “Relative activity (%)” value (Bgl-gyp17) read?
Answer: The value was 0%.

Question: With `O=[N+]([O-])c1ccc(OC2OCC(O)C(O)C2O)cc1` [pNP-β-L-binopyranoside] as the compound, how does the “Relative activity (%)” value (Bgl-gyp17) read?
Answer: The value was 0%.
